Assay results published in US9597337B2, “Berberine-ursodeoxycholic acid conjugate for treating the liver” (NORTH AMERICAN BIOMEDICAL RESEARCH CENTER USA, INC., priority 2014, dated 2017).
Read-outs that look alike come from different tables or passages of the source.

Key:
[1] = system: HT29; experiment: CCK-8 cell viability assay, HT29; type: cell-based; conditions: Homo sapiens, HT-29, HT29, 48 hour period
From the text: (§1) To obtain the data in FIG. 2, Cell Counting Kit-8 (CCK-8) was used. CCK-8 is commercially available from Dojindo Molecular Technologies, Inc. CCK-8 allows sensitive colorimetric assays for the determination of cell viability in cell proliferation and cytotoxicity assays. Dojindo's highly water-soluble tetrazolium salt, used in CCK-8, is reduced by dehydrogenase activities in cells to give a yellow-color formazan dye, which is soluble in the tissue culture media. The amount of the formazan dye, generated by the activities of dehydrogenases in cells, is directly proportional to the number of living cells. The detection sensitivity of CCK-8 may be higher than the other tetrazolium salts such as MTT, XTT, MTS or WST-1. Cancerous cells in a cell culture were exposed to the either irinotecan, ursodeoxycholic acid, berberine, or NABR01, and the results were recorded. Various concentrations of each molecule were used, resulting in different amount of cell viability. Cell viability was measured according to the procedures of CCK-8, namely higher cell counts lead to higher absorption measurements, which would mean lower drug efficacy.
(§2) DLD1 refers to Dukes' type C, colorectal adenocarcinoma, and NABR01 has an IC50 of 5.0 uM for DLD1. HCT2 refers to a hamster lymphoid cell line, and NABR01 has an IC50 of 6.0 uM for HCT2. […]

[2] = system: MDA231; experiment: CCK-8 cell viability assay, MDA231; type: cell-based; conditions: Homo sapiens, MDA-MB-231, MDA231, 48 hour period
From the text: as §1
(§3) As shown in FIGS. 19-20, the efficacy of NABR01 can vary greatly depending on the cancerous cell line, and as a result, NABR01 may not be effective against certain cell lines. […]

[3] = system: MCF7; experiment: CCK-8 cell viability assay, MCF7; type: cell-based; conditions: Homo sapiens, MCF7, 48 hour period
From the text: as §1, §2

[4] = system: HCT2; experiment: CCK-8 cell viability assay, HCT2; type: cell-based, hamster; conditions: Mesocricetus auratus, HCT2, 48 hour period
From the text: as §1, §2

[5] = system: MDA468; experiment: CCK-8 cell viability assay, MDA468; type: cell-based; conditions: MDA468, 48 hour period
From the text: as §1, §2

[6] = system: SJSA; experiment: CCK-8 cell viability assay, SJSA; type: cell-based; conditions: 48 hour period
From the text: as §1, §3

[7] = system: GS-Li013 cells; experiment: CCK-8 cell viability assay in GS-Li013 cells; type: cell-based; conditions: GS-Li013 (GS-cell lines), 24 hour treatment
From the text: (§4) FIG. 2 is a set of graphs showing the ability of various molecules to kill KMCH and GS-Li013 cells, which are cholangiocarcinoma cells. The data presented in FIG. 2 is based on in-vtro studies. The y-axis of each graph represents the Cell viability percentage 205 of KMCH and GS-Li013 cells. The x-axis of each graph represents the Log[C]210. [C] refers to the concentration of the molecule tested in uM. IC50 commonly refers to the half maximal inhibitory concentration, and is used to numerically represent the efficacy of various molecules to be effective in their respective tasks. In this case, IC50 means the concentration at which half of the target cells are no longer viable. […] The unit uM is used to represent the IC50 value. uM is the same as micro molar concentration, which is 10^−6 moles/liter, a common concentration unit.
as §1

[8] = system: KMCH tumor; experiment: Tumor xenograft study in mice; type: in vivo
From the text: Tumor xenografts studies in mice indicate that the tumor growth corresponding to weight and volume in NABR01 treated group of mice was reduced by approximately 45% in size when treated for 21 days.

[9] = system: HCT; experiment: CCK-8 cell viability assay, HCT; type: cell-based; conditions: 48 hour period
From the text: as §1, §2

[10] = system: PANC1; experiment: CCK-8 cell viability assay, PANC1; type: cell-based; conditions: Homo sapiens, PANC-1, PANC1, 48 hour period
From the text: as §1, §2

[11] = system: HepG2; experiment: CCK-8 cell viability assay, HepG2; type: cell-based; conditions: Homo sapiens, HepG2, 48 hour period
From the text: as §1, §2

[12] = system: KMCH cells; experiment: Western blot analysis of signaling and apoptosis proteins in KMCH cells; type: cell-based; conditions: for cytochrome C release from mitochondria, western blot: berberine at same concentration as NABR01
Description: FIGS. 6-18 is data which illustrates the mechanism of action for NABR01. Once a mechanism of action is known, it may become possible to predict with some level of accuracy the effects a drug may have, though extensive testing would still be required. Until a mechanism is known, it is extremely difficult to predict what a particular molecule or compound may be useful for, if it is even useful at all. A western blot analysis was performed for MAP kinase signaling proteins, phospho p38, phospho JNK and phospho ERK in KMCH cells with and without NABR01 treatment.
The cytotoxic effect of NABR01 in addition to downregulation of Bcl2, may be attributed to an increase in proapoptotic protein Bim which is specifically cleaved to generate the cytotoxic Bims-form in KMCH cells are treated with NABR01. Caspase-9 is cleaved in cells treated with NABR01 indicating an upstream activation of Caspase 3. […] Accordingly, not only does the ursodiol component of NABR01 assist in targeting, but ursodiol also increases efficacy of the compound when introduced directly to the relevant cells, a wholly unexpected effect.
The activity of pro-inflammatory signaling pathway protein phospho STAT may also increase in NABR01 treated cells.

[13] = system: HuCCT; experiment: CCK-8 cell viability assay, HuCCT; type: cell-based; conditions: 48 hour period
From the text: as §1, §3

[14] = system: U2OS; experiment: CCK-8 cell viability assay, U2OS; type: cell-based; conditions: Homo sapiens, 48 hour period
From the text: as §1, §2

[15] = system: CCA; experiment: CCK-8 cell viability assay, CCA; type: cell-based; conditions: 48 hour period
From the text: as §1, §2

[16] = system: PC3; experiment: CCK-8 cell viability assay, PC3; type: cell-based; conditions: Homo sapiens, PC-3, PC3, 48 hour period
From the text: as §1, §3

[17] = system: DLD1; experiment: CCK-8 cell viability assay, DLD1; type: cell-based; conditions: Homo sapiens, DLD-1, DLD1, 48 hour period
From the text: as §1, §2

[18] = system: KMCH cells; experiment: CCK-8 cell viability assay in KMCH cells; type: cell-based
From the text: as §4, §1
DLD1 refers to Dukes' type C, colorectal adenocarcinoma, and NABR01 has an IC50 of 5.0 uM for DLD1. HCT2 refers to a hamster lymphoid cell line, and NABR01 has an IC50 of 6.0 uM for HCT2. […] NABR01 has an unexpectedly effective IC50 of less than 10 uM for the cell lines described above, and the related cancers.

[19] = KMCH cells, 24 hour treatment, read-out: IC50 (cell viability)

Q: What does the source list for `COc1ccc2cc3[n+](cc2c1OCCCCCCNC(=O)CC[C@@H](C)[C@H]1CC[C@H]2[C@@H]4[C@@H](O)CC5CC(O)CC[C@]5(C)[C@H]4CC[C@]12C)CCc1cc2c(cc1-3)OCO2` (stereo in doubt) [NABR01, berberine-ursodeoxycholic acid conjugate]?
A: IC50 [1]: 5.2 µM; IC50 [2]: 36 µM; IC50 [3]: 9.2 µM; IC50 [4]: 6 µM; IC50 [5]: 2.1 µM; IC50 [6]: 14 µM; IC50 [7]: 15 µM; tumor weight inhibition ([8]; mice with a KMCH tumor, 4 mg/kg): 43.46%; tumor growth (weight and volume) reduction in size ([8]; mice, tumor xenografts, treated for 21 days): approximately 45%; IC50 [9]: 3.9 µM; IC50 [10]: 3.3 µM; IC50 [11]: 5.4 µM; phospho PTEN, western blot [12]: remain unchanged; pro-apoptotic protein Noxa [12]: increase; PARP activation by cleavage, western blot ([12]; 10 uM): activated; anti-apoptotic protein Bcl2, western blot ([12]; 10 uM): down regulated; phospho ERK (cell survival pathway), western blot ([12]; 10 uM): downregulated; phospho JNK (cell death signaling pathway), western blot ([12]; 10 uM): increased; phospho p38 (cell death signaling pathway), western blot ([12]; 10 uM): increased; AKT signaling pathway, western blot ([12]; 10 uM, 16 hours): downregulated; phosphor-AKT pathway, western blot ([12]; 10 uM, 16 hours): downregulated; proapoptotic protein Bim (cleaved to Bims-form), western blot ([12]; 10 uM, 24 hours): increase; Caspase-9 cleavage, western blot ([12]; 10 uM, 48 hours): cleaved; Phospho CKH2 (DNA repair), western blot ([12]; 16 hours): increased activity; Total P53 levels, western blot ([12]; 16 hours): downregulated; phospho STAT (pro-inflammatory signaling), western blot ([12]; 16 hours): increase; phosphoATM (DNA repair), western blot ([12]; 16 hours): increased activity; phospho 4EBP1, western blot ([12]; 24 hours): not significantly altered; phospho EF2k, western blot ([12]; 24 hours): not significantly altered; phospho eIF4E, western blot ([12]; 24 hours): not significantly altered; phospho p70S6 kinase, western blot ([12]; 24 hours): not significantly altered; phosphor mTOR 52481 pathway, western blot ([12]; 24 hours): downregulated; cytochrome C release from mitochondria, western blot [12]: released from mitochondria; Bcl2 protein levels ([12]; by 24hrs of exposure): significant decrease; IC50 [13]: 15 µM; IC50 [14]: 4.3 µM; IC50 [15]: 4.8 µM; IC50 [16]: 16 µM; IC50 [17]: 5 µM; IC50 [18, 19]: 15 µM; IC50 ([18]; KMCH, 48 hour period, read-out: IC50): 2.9 µM

Q: How did the IC50 [7] turn out when `COc1ccc2cc3[n+](cc2c1OC)CCc1cc2c(cc1-3)OCO2` [berberine] was run?
A: 200 µM

Q: What about the “phospho ERK (cell survival pathway), western blot” value ([12]; 10 uM) of the same compound?
A: not observed

Q: And the “phospho JNK (cell death signaling pathway), western blot” value ([12]; 10 uM)?
A: not observed

Q: And the “phospho p38 (cell death signaling pathway), western blot” value ([12]; 10 uM)?
A: not observed

Q: What about the “cytochrome C release from mitochondria, western blot” value [12] of the same compound?
A: did not result in the release

Q: And the IC50 [18, 19]?
A: 200 µM

Q: Which IC50 [7] does the source give for `CCc1c2c(nc3ccc(OC(=O)N4CCC(N5CCCCC5)CC4)cc13)-c1cc3c(c(=O)n1C2)COC(=O)[C@]3(O)CC` [irinotecan] here?
A: 90 µM

Q: What about the IC50 [18, 19] of the same compound?
A: 95 µM

Q: For `C[C@H](CCC(=O)O)[C@H]1CC[C@H]2[C@@H]3[C@@H](O)C[C@@H]4C[C@H](O)CC[C@]4(C)[C@H]3CC[C@]12C` [ursodeoxycholic acid], which “IC50 (cell viability)” value [7] is on record?
A: no IC50

Q: And the “IC50 (cell viability)” value ([18]; KMCH cells, 24 hour treatment)?
A: no IC50
